Assay: Inhibition of c-MYC (unknown origin)

Structure (SMILES)	IC50 [nM]
Cc1nnn(C)c1-c1cc2c(cn1)c1ncc(C(C)(C)O)cc1n2[C@H](c1ccccc1)C1CCOCC1 [US9725449, Example 364]	6.9
Cc1nnn(C)c1-c1ccc2c3ncc(C(C)(C)O)cc3n([C@H](c3ccccc3)C3CCOCC3)c2c1F [US10683290, Example 20]	0.6
Cc1nnn(C)c1-c1cnc2c3ccc(C(C)(C)O)cc3n([C@H](c3ccccc3)C3CCOCC3)c2c1 [US10112941, Example 54]	0.7
Cc1nnn(C)c1-c1ccc2c3ncc(C(C)(C)O)cc3n([C@H](c3ccccc3)C3CCOCC3)c2c1 [US10683290, Example 16]	0.2
Cc1nnn(C)c1-c1cc2c(cc1Cl)c1ncc(C(C)(C)O)cc1n2[C@H](c1ccccc1)C1CCOCC1 [US10683290, Example 77]	42
Cc1nnn(C)c1-c1cc2c(cc1F)c1ncc(C(C)(C)O)cc1n2[C@H](c1ccccc1)C1CCOCC1 [US10683290, Example 19]	0.8
[2H]C([2H])([2H])c1nnn(C)c1-c1cc2c(cc1F)c1ncc(C(C)(C)O)cc1n2[C@@H](CCC)c1ncccc1F	0.7
Cc1nnn(C)c1-c1cc(F)c2c3ncc(C(C)(C)O)cc3n([C@H](c3ccccc3)C3CCOCC3)c2c1 [US10683290, Example 11]	3.4
[2H]C([2H])([2H])c1nnn(C)c1-c1cc2c(cc1F)c1ncc(C(C)(C)O)cc1n2[C@H](c1cc(C)on1)C1CCOCC1	2.4
[2H]C([2H])([2H])c1nnn(C)c1-c1cc2c(cc1F)c1ncc(C(C)(C)O)cc1n2[C@H](c1ncccc1F)C1CCOCC1	1.3
